From ChEMBL document CHEMBL5291721, “A preclinical secondary pharmacology resource illuminates target-adverse drug reaction associations of marketed drugs” (Nat Commun, 2023) come the findings set out here.

Some results are limits rather than exact numbers.

Assay [1] concerns the target T1, Prostaglandin G/H synthase 1 (Rattus norvegicus, UniProt Q63921).
T1 sequence (Q63921 whole entry): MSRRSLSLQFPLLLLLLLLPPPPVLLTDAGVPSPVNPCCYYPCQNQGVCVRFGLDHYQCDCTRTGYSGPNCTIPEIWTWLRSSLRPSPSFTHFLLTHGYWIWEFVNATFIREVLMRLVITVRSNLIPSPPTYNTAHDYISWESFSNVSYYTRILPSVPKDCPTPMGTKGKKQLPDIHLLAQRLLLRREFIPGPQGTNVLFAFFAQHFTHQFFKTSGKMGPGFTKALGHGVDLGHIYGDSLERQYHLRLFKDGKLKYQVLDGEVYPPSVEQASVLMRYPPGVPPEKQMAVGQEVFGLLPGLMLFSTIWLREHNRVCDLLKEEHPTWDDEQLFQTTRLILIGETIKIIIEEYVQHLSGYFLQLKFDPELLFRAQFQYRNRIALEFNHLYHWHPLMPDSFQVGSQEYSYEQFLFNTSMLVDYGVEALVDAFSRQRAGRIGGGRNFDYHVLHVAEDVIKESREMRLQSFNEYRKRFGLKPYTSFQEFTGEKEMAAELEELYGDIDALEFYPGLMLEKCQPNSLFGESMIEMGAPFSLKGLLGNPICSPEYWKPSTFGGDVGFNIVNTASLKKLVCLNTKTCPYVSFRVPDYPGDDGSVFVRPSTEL
The format is functional.

In assay [2] the target is D(3) dopamine receptor (Homo sapiens, UniProt P35462).
Sequence of D(3) dopamine receptor (P35462 whole entry): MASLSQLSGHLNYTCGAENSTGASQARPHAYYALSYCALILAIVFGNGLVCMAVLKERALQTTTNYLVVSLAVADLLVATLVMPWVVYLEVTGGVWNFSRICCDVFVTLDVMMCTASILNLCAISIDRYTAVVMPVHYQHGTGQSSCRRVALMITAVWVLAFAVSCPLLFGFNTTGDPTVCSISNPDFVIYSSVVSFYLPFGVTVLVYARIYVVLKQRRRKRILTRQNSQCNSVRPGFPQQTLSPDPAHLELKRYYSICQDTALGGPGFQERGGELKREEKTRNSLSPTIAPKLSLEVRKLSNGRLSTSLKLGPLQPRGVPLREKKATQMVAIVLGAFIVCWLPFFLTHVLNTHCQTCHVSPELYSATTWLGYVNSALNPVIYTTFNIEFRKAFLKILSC
The target of assay [3] is Voltage-gated inwardly rectifying potassium channel KCNH2 (Homo sapiens, UniProt Q12809). The format is functional.
Sequence of Voltage-gated inwardly rectifying potassium channel KCNH2 (Q12809 whole entry): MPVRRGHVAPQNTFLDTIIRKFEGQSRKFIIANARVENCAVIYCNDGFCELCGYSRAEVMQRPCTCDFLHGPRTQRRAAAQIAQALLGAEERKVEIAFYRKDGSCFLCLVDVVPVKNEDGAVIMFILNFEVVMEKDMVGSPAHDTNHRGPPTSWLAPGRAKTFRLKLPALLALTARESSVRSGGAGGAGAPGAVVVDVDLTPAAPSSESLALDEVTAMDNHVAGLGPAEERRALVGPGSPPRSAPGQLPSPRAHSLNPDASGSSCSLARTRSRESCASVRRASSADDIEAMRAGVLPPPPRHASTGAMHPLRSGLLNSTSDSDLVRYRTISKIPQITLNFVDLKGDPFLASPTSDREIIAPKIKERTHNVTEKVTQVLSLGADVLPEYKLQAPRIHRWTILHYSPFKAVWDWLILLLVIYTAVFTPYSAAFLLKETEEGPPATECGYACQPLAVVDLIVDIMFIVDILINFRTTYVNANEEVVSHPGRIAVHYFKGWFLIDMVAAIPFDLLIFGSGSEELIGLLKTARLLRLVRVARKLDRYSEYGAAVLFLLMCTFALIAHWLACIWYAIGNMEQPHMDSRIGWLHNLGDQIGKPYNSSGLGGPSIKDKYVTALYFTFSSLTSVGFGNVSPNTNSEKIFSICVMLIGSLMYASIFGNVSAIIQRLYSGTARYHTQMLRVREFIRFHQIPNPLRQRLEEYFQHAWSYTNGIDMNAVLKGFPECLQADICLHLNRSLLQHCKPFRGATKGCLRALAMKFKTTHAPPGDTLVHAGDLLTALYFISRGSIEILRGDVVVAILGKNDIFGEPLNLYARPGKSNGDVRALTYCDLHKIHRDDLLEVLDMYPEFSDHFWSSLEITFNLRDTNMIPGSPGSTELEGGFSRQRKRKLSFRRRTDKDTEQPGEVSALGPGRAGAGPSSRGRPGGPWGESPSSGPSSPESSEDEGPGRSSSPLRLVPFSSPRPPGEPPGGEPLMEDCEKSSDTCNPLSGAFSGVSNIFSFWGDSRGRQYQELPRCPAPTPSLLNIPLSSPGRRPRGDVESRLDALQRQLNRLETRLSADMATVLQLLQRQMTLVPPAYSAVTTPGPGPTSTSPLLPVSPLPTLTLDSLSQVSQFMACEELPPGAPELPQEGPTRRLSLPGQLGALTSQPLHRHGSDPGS
Assay [4] has as its target T2, Amine oxidase [flavin-containing] A (Homo sapiens, UniProt P21397).
T2 sequence (P21397 whole entry): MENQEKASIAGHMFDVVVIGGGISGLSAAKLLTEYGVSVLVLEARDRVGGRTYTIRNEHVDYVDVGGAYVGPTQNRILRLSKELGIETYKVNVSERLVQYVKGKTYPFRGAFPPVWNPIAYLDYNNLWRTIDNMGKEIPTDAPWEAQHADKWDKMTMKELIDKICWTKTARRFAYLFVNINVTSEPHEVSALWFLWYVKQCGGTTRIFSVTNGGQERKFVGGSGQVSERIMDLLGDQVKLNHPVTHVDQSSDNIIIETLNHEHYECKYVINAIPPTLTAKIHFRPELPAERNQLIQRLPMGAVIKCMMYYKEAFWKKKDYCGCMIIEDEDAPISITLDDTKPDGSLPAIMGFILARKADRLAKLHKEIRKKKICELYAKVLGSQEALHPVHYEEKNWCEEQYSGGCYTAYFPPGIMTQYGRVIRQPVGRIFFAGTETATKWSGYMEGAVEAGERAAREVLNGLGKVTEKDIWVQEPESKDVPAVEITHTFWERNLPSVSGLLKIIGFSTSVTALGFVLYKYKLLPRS
The class given is functional.

Assay [5] has as its target T3, 5-hydroxytryptamine receptor 2C (Homo sapiens, UniProt P28335).
T3 sequence (P28335 whole entry): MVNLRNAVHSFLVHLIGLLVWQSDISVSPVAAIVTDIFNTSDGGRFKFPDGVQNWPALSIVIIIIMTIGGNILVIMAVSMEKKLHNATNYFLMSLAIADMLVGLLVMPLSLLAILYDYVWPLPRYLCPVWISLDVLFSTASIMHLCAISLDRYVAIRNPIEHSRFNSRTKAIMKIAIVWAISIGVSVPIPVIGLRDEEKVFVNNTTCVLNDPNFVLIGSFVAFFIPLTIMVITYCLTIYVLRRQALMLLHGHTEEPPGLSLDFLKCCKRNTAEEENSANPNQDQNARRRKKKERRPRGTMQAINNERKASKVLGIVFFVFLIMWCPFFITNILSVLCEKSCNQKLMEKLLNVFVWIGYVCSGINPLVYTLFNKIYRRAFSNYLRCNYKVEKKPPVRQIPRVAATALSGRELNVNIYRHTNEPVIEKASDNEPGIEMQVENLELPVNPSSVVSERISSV

For assay [6], the target named is T4, Type-1 angiotensin II receptor (Homo sapiens, UniProt P30556).
T4 sequence (P30556 whole entry): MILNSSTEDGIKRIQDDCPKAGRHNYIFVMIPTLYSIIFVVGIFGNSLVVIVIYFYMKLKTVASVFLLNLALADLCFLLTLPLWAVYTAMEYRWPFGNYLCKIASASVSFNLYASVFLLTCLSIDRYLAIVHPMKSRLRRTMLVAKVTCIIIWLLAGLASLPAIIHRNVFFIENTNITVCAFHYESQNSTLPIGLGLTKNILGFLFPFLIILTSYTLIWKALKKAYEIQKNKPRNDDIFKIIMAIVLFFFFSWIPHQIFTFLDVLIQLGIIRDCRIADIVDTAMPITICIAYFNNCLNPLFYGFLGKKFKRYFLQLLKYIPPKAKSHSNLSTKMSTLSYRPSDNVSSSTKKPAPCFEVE

Assay [7] addresses T5, Glucocorticoid receptor (Homo sapiens, UniProt P04150).
T5 sequence (P04150 whole entry): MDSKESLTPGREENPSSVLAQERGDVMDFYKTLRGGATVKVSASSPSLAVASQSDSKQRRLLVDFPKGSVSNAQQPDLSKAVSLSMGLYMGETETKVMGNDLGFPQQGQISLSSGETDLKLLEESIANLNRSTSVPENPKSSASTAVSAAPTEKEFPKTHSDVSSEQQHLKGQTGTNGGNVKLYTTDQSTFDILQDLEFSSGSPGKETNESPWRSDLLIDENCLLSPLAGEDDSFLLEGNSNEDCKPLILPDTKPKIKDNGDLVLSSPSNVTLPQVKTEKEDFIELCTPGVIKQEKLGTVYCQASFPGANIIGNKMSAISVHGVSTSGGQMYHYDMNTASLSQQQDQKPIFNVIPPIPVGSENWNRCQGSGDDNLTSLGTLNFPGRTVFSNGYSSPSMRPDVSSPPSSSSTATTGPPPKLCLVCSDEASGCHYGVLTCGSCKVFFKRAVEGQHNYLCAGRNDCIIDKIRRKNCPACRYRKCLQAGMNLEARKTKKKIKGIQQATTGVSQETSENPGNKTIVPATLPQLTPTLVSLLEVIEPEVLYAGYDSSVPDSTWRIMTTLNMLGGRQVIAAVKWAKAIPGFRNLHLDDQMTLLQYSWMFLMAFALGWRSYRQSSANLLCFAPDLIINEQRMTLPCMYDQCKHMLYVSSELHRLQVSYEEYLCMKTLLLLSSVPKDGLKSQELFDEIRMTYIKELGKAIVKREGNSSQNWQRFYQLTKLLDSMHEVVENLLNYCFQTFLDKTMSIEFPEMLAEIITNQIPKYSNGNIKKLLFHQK
Note: assay procedure not described here.

As to `Oc1cc(O)c(Cl)cn1`, the AC50 in assay [1], in assay [2], in assay [3], in assay [4], in assay [5] and in assay [6] was greater than 30 µM each time.
Take `CCC1(CCC(C)C)C(=O)NC(=O)NC1=O` [AMOBARBITAL]: the AC50 was greater than 10 µM in assay [1]; greater than 30 µM in assay [2]; greater than 30 µM in assay [3]; greater than 10 µM in assay [4]; greater than 30 µM in assay [5]; greater than 10 µM in assay [6].
As to `Cc1cc(=O)n(-c2ccccc2)n1C` [ANTIPYRINE], the AC50 was greater than 30 µM in assay [1]; greater than 10 µM in assay [2]; greater than 30 µM in assay [3]; greater than 10 µM in assay [4]; greater than 30 µM in assay [5]; greater than 30 µM in assay [6].
As to `O=C(O)c1ccc(NC(=O)[C@H](Cc2ccc(O)cc2)NC(=O)c2ccccc2)cc1` [BENTIROMIDE], the AC50 was greater than 10 µM in assay [1]; greater than 30 µM in assay [2]; greater than 30 µM in assay [3]; greater than 10 µM in assay [4]; greater than 30 µM in assay [5]; greater than 10 µM in assay [6].
As to `CO/N=C(\C(=O)N[C@@H]1C(=O)N2C(C(=O)O)=CCS[C@H]12)c1csc(N)n1` [CEFTIZOXIME], the AC50 in assay [1], in assay [3], in assay [4], in assay [6] and in assay [7] was greater than 30 µM each time.
Take `COc1cc(N)c(Cl)cc1C(=O)NC1CCN(CCCOc2ccc(F)cc2)CC1OC` (stereo not given) [CISAPRIDE]: the AC50 in assay [1] is greater than 30 µM; in assay [2] it was 6.3 µM; in assay [4], greater than 10 µM; in assay [6] it was greater than 30 µM; in assay [7], greater than 30 µM.
For `C[C@@H]1C[C@H]2[C@@H]3CCC4=CC(=O)C=C[C@]4(C)[C@@]3(F)[C@@H](O)C[C@]2(C)[C@@]1(O)C(=O)CO` [DEXAMETHASONE], the AC50 in assay [1], in assay [2], in assay [3], in assay [4], in assay [5] and in assay [6] was greater than 30 µM each time.
Take `CC(C)[C@@H](C)/C=C/[C@@H](C)[C@H]1CC[C@H]2/C(=C/C=C3\C[C@@H](O)CC[C@@H]3C)CCC[C@]12C` [DIHYDROTACHYSTEROL]: the AC50 in assay [1] was greater than 10 µM; in assay [2], greater than 30 µM; in assay [3], greater than 30 µM; in assay [4], greater than 10 µM; in assay [5], greater than 30 µM; in assay [6], greater than 10 µM.
On to `Oc1ccc(CCNCCCCCCNCCc2ccccc2)cc1O` [DOPEXAMINE], for which the AC50 in assay [1] was greater than 30 µM; in assay [2], 0.16 µM; in assay [3], 2.9 µM; in assay [4] it was greater than 30 µM; in assay [5], greater than 30 µM; in assay [6], greater than 30 µM.
On to `CC(C)NC[C@H](O)COc1ccc(CC(N)=O)cc1` [ESATENOLOL], for which the AC50 in assay [1] was greater than 30 µM; in assay [2], greater than 10 µM; in assay [4], greater than 10 µM; in assay [5], greater than 10 µM; in assay [6], greater than 30 µM.
Turning to `CCOC(=O)c1ncn2c1CN(C)C(=O)c1cc(F)ccc1-2` [FLUMAZENIL], the AC50 in assay [1], in assay [2], in assay [3], in assay [4], in assay [5] and in assay [6] was greater than 30 µM throughout.
With `CO[C@H]1C[C@H](O[C@H]2CC[C@@]3(C)[C@H](CC[C@@H]4[C@@H]3CC[C@]3(C)[C@@H](C5=CC(=O)OC5)[C@@H](OC(C)=O)C[C@]43O)C2)O[C@@H](C)[C@@H]1O` [OLEANDRIN], the AC50 in assay [2], in assay [3], in assay [4] and in assay [5] was greater than 30 µM throughout.
As for `c1ccc(C2(N3CCCCC3)CCCCC2)cc1` [PHENCYCLIDINE], the AC50 in assay [1] is greater than 30 µM; in assay [2], greater than 30 µM; in assay [3], 12 µM; in assay [4], greater than 30 µM; in assay [6], greater than 30 µM; in assay [7] it was greater than 30 µM.
With `CCC(=O)O[C@](Cc1ccccc1)(c1ccccc1)[C@H](C)CN(C)C` [PROPOXYPHENE], the concentration at half-maximal activity (AC50) in assay [1] is greater than 30 µM; in assay [2], greater than 10 µM; in assay [3] it was 1.74 µM; in assay [4] it was greater than 10 µM; in assay [5] it was greater than 30 µM; in assay [6] it was greater than 30 µM.
Take `O=c1c(O)c(-c2ccc(O)c(O)c2)oc2cc(O)cc(O)c12` [QUERCETIN]: the AC50 in assay [1] was greater than 30 µM; in assay [2], greater than 30 µM; in assay [3] it was greater than 30 µM; in assay [4], 5.6 µM; in assay [5], greater than 30 µM; in assay [6], greater than 30 µM.
With `CCN(CC)CCCC(C)Nc1c2ccc(Cl)cc2nc2ccc(OC)cc12` (stereo not given) [QUINACRINE], in assay [3], the concentration at half-maximal activity (AC50) was 0.7 µM.
As to `CC1=C(/C=C/C(C)=C/C=C/C(C)=C/CO)C(C)(C)CCC1` [RETINOL], the AC50 in assay [1] is greater than 10 µM; in assay [2] it was greater than 30 µM; in assay [4], greater than 10 µM; in assay [5], greater than 30 µM; in assay [6], greater than 30 µM.
For the compound `CCCN1CCCC[C@H]1C(=O)Nc1c(C)cccc1C` [ROPIVACAINE], the half-maximal activity concentration (AC50) in assay [1], in assay [2], in assay [3], in assay [4], in assay [5] and in assay [6] was greater than 30 µM throughout.
As for `CCCCCCCC(=O)CC[C@@H]1[C@@H](C/C=C\CCCC(=O)OC(C)C)[C@@H](O)C[C@H]1O` [UNOPROSTONE ISOPROPYL], the AC50 in assay [1], in assay [2] and in assay [4] was greater than 30 µM throughout.

By AC50 is commonly meant the concentration giving half of the maximal activity seen. The low end stands for activity at low concentration, the high end for activity only at high concentration.
